Literature values, collected in US20180140566A1, “ACETAMINOPHEN AND TRAMADOL COMPOUND ORAL SOLUTION” (BORA PHARMACEUTICALS CO., LTD., priority 2016, published 2018).

Row | SMILES | amount of acetaminophen dissolved per milliliter of water (per milliliter (mL) of water, at 25 degrees Celsius) | solubility in acetone (acetone, in words) | solubility in water (water, in words)
1 | CC(=O)Nc1ccc(O)cc1 [acetaminophen] | no more than 14.00 mg |  | 
2 | COc1cccc(C2(O)CCCCC2CN(C)C)c1 (stereo not drawn) [Tramadol, tramadol] |  | hardly dissolves | makes great aqueous solutions
